# Measured values published in patent publication US9174942B2, “IDO inhibitors” (NewLink Genetics Corporation, priority 2008, dated 2015).
# Molecular target: T1, purified human IDO protein (Homo sapiens, UniProt P14902, E119G/P110S)
# T1 construct: 6-Histidine tag (C); made in house; host or cells: E. coli M15(pREP4) transformed with pQE70-hIDO
# Assay: Enzymatic IDO assay (kynurenine formation, absorbance at 480 nm)
# Assay type: biochemical
# Conditions: recombinant human IDO, 200 μM L-tryptophan, pH 6.5; reported in ranges
# Description: The inhibitors were initially diluted in DMSO at 100 mM and were diluted in potassium phosphate 50 mM, added to the reaction mixture at final concentrations raging from 1 mM to 5 nM and preincubated with the enzyme for 5 min at 25° C. The reaction was started by addition of L-tryptophan to 200 μM and incubated 15 min at 37° C. The reaction was stopped by addition of 0.5 vol of 30% trichloroacetic acid and incubated 30 min at 60° C. to hydrolyze N-formylkynurenine to kynurenine. The reaction was centrifuged at 3400 g for 5 min to remove precipitated protein and the supernatant was reacted with 2% (w/v) of p-dimethylaminobenzaldehyde in acetic acid. The reaction was incubated 10 min at 25° C. and read at 480 nm in a spectrophotometer. […] Nonlinear regressions and determination of the IC50 values were performed using the GraphPad Prism 4 software.
# T1 sequence (P14902 whole entry P110S/E119G): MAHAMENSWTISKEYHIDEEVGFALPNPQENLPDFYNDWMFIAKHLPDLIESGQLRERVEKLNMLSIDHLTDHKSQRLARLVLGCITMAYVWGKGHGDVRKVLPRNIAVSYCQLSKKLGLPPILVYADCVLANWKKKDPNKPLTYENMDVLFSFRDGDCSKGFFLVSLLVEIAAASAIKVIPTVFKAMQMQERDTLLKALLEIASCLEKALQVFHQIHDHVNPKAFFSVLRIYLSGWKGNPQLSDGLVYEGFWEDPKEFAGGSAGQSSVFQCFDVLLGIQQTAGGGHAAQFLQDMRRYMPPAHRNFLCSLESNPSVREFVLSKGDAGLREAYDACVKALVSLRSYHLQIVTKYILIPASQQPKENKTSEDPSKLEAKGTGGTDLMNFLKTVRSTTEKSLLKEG
row,Structure (SMILES),IC50
1,"Brc1ccccc1CCOc1ccccc1-c1c[nH]cn1 [Compound 148, 4-(2-(2-bromophenethoxy)phenyl)-1H-imidazole]",< 20 µM
2,"CC(C)(C)OC(=O)N1CCC(CCOc2ccccc2-c2c[nH]cn2)CC1 [Compound 150, tert-butyl 4-(2-(2-(1H-imidazol-4-yl)phenoxy)ethyl) piperidine-1-carboxylate]",20 to 100 µM
3,"Clc1ccc(CCOc2ccccc2-c2c[nH]cn2)cc1 [Compound 61, 4-(2-(4-chlorophenethoxy)phenyl)-1H-imidazole]",20 to 100 µM
4,"N#Cc1cccc(Cn2cncc2-c2ccccc2)c1 [Compound 69, 3-((5-phenyl-1H-imidazol-1-yl)methyl)benzonitrile]",20 to 100 µM
5,"O=C1c2ccccc2CC1Oc1ccccc1-c1c[nH]cn1 (centres unmarked) [Compound 159, 2-(2-(1H-imidazol-4-yl)phenoxy)-2,3-dihydro-1H-inden-1-one]",20 to 100 µM
6,"CNC(=O)Cc1cccc(COc2ccccc2-c2c[nH]cn2)c1 [Compound 57, 2-(3-((2-(1H-imidazol-4-yl)phenoxy)methyl)phenyl)-N-methylacetamide]",20 to 100 µM
7,"CC(C)(C)OC(=O)NCCn1cncc1-c1ccccc1 [Compound 114, tert-butyl 2-(5-phenyl-1H-imidazol-1-yl)ethylcarbamate]",100 to 500 µM
8,"CC(C)(CCNCc1ccccc1)CCOc1ccccc1-c1c[nH]cn1 [Compound 166, 5-(2-(1H-imidazol-4-yl)phenoxy)-N-benzyl-3,3-dimethylpentan-1-amine]",< 20 µM
